Source: US20170260285A1, “METHODS FOR TREATING CANCER” (UNIVERSITY OF IOWA RESEARCH FOUNDATION, priority 2014, published 2017)
Entries after “also recorded” stand apart in the source; their conditions may differ. Read-outs that look alike come from different tables or passages of the source.

Key:
[1] = test system: genes related to inflammation and innate immunity; conditions: one other study (ref. 25); cited from earlier work
SQ20B HNSCC cells [2] = assay: IL-1α release by ELISA in SQ20B cells; format: cell-based, human; conditions: erlotinib 5 μM, indicated time points, ELISA
Procedure: (§1) Erlotinib (ERL; Tarceva) and anakinra (ANA; Kineret) were obtained from the inpatient pharmacy at the University of Iowa Hospitals and Clinics. Drugs were added to cells at final concentrations of 5 μM ERL and 10 ng/mL or 50 ng/mL ANA. Human IgG and […] (DMSO) were used as controls and were obtained from Sigma Aldrich. Human IL-1α, IL-1β, and IL-18Rα neutralizing antibodies were obtained from R&D Systems and were used at a concentration of 0.5 μg/mL. Recombinant human IL-1α was obtained from Life Technologies and administered at a concentration of 1 ng/mL. Ac-Y-VAD-cho, a caspase-1 inhibitor (CalBioChem), was suspended in DMSO and added at a concentration of […], a pan-caspase inhibitor (Promega) was diluted in DMSO and added at a concentration of 20 μM. TLR agonists were used at the following concentrations: Pam3CSK4 (200ng/mL), FSL-1 (100 ng/mL), Poly I:C (20 μg/mL), LPS (200 ng/mL), Flagellin (200 ng/mL), Gardiquimod (1 μg/mL), CL075 (1 μg/mL), and E. coli DNA (1 μg/mL). All TLR agonists were obtained from InvivoGen. The required volume of each drug was added directly to complete cell culture media on cells to achieve the indicated final concentrations.
(§2) Levels of IL-6, IL-1α and IL-1β of treated cells were determined by ELISA. The culture media of the treated cells were harvested and each cytokine was detected according to the manufacturer's protocol using the Human Quantikine ELISA Kits (R&D Systems, Minneapolis, Minn.).
(§3) Erlotinib (ERL; Tarceva), anakinra (ANA; Kineret) and N-acetyl cysteine (NAC; Acetadote) were obtained from the inpatient pharmacy at the University of Iowa Hospitals and Clinics. Drugs were added to cells at final concentrations of 5 μM ERL, 10 ng/mL or 50 ng/mL ANA and 20 mM NAC. Human IgG and […] (DMSO) were used as controls and were obtained from Sigma Aldrich. Pegylated catalase (CAT; Sigma Aldrich) was used at a final concentration of 100 U/mL. Human IL-1α, IL-1β, and IL-18Ra neutralizing antibodies were obtained from R&D Systems and were used at a concentration of 0.5 μg/mL. Recombinant human IL-1α was obtained from Life Technologies and administered at a concentration of 1 ng/mL. Ac-Y-VAD-cho (CalBioChem) was suspended in DMSO and used at 5 μM. Z-VAD-fmk (Promega) was diluted in DMSO and used at 20 μM. TLR agonists were used at the following concentrations: Pam3CSK4 (200 ng/mL), FSL-1 (100 ng/mL), Poly I:C (20 μg/mL), LPS (200 ng/mL), Flagellin (200 ng/mL), Gardiquimod (1 μg/mL), CL075 (1 μg/mL), and E. coli DNA (1 μg/mL). All TLR agonists were obtained from InvivoGen. The required volume of each drug was added directly to complete cell culture media on cells to achieve the indicated final concentrations.
(§4) Levels of IL-6, IL-1α and IL-1β of treated cells were determined by ELISA. The culture media of the treated cells were harvested and each cytokine was detected according to the manufacturer's protocol using Human Quantikine ELISA Kits (R&D Systems, Minneapolis, Minn.).

HNSCC tumor cell lines = conditions: previous studies (ref. 10), cited from earlier work
SQ20B cells = assay: TLR gene expression by RTPCR in SQ20B cells; format: cell-based, human
Procedure: (§6) Total RNA was extracted from cells after indicated time points using RNeasy.Plus mini kit (Qiagen). Conversion of RNA into cDNA was accomplished with the iScript cDNA synthesis kit (Bio-Rad) and a thermocycler with the following conditions: 5 minutes at 25° C., 30 minutes at 42° C., and 5 minutes at 85° C. Subsequent RTPCR analysis was performed in a 96-well optical plate with each well containing 6 μL of cDNA, 7.5 μL of SyBr Green Universal SuperMix (Bio-Rad), and 1.5 μof oligonucleotide primers (sense and antisense; 4 μM) for a total reaction volume of 15 μL. Oligonucleotide primers for human genes were obtained from IDT (Iowa City, Iowa). RTPCR was performed on ABI PRISM Sequence Detection System (model 7000, Applied Biosystems) with the following protocol: 95° C. for 15 seconds (denaturing) and 60° C. for 60 seconds (annealing), repeated for 40 cycles. Threshold cycle (CT) values for analyzed genes (in duplicate) were normalized as compared to GAPDH (cell lines) or 18S (human samples) CT values. Relative abundance was calculated as 0.5̂(ΔCT), with OCT being the CT value of the analyzed gene minus the CT value of the reference gene (GAPDH or 18S).

[3] = test system: SQ20B and Cal-27 HNSCC cells; assay: IL-1β secretion by ELISA after erlotinib; format: cell-based, human; conditions: erlotinib 5 μM, any time point
Procedure: as §1, with “TLR agonists were used at the following concentrations: Pam3CSK4 (200ng/mL), FSL-1 (100 ng/mL), Poly I:C (20 μg/mL), LPS (200 ng/mL), Flagellin (200 ng/mL), Gardiquimod (1 μg/mL), CL075 (1 μg/mL), and E. coli DNA (1 μg/mL). All TLR agonists were obtained from InvivoGen. The required volume of each drug was added directly to complete cell culture media on cells to achieve the indicated final concentrations.” left out
Levels of IL-6, IL-1α and IL-1β of treated cells were determined by ELISA. The culture media of the treated cells were harvested and each cytokine was detected according to the manufacturer's protocol using the Human Quantikine ELISA Kits (R&D Systems, Minneapolis, Minn.). […]
as §4

Cal-27 cells = assay: TLR gene expression by RTPCR in Cal-27 cells; format: cell-based, human
Procedure: as §6

SQ20B HNSCC cells [4] = assay: IL-6 secretion by ELISA in SQ20B cells; format: cell-based, human; conditions: erlotinib 5 μM, 48 h vs DMSO, ELISA
Source text: (§5) Cal-27 and FaDu human head and neck squamous carcinoma (HNSCC) cells were obtained from the American Type Culture Collection (ATCC, Manassas, Va.). SQ20B HNSCC cells (16) were a gift from Dr. Anjali Gupta (Department of Radiation Oncology, The University of Iowa). All HNSCC cell lines are EGFR positive and are sensitive to EGFR inhibitors. All cell lines were authenticated by the ATCC for viability (before freezing and after thawing), growth, morphology and isoenzymology. Cells were stored according to the supplier's instructions and used over a course of no more than 3 months after resuscitation of frozen aliquots. Cultures were maintained in 5% CO2 and air humidified in a 37° C. incubator.
as §1, §2
as §5, with “(20)” for “(16)”
as §3, with “The required volume of each drug was added directly to complete cell culture media on cells to achieve the indicated final concentrations.” left out

SQ20B xenograft tumors = assay: HNSCC xenograft tumor growth in nude mice; format: in vivo, athymic nu/nu mice
Source text: Male and female athymic-nu/nu mice (4-5 weeks old) were purchased from Harlan Laboratories (Indianapolis, Ind.). Mice were housed in a pathogen-free barrier room in the Animal Care Facility at the University of Iowa and handled using aseptic procedures. All procedures were approved by the IACUC committee of the University of Iowa and conformed to the guidelines established by the NIH. Mice were allowed at least 3 days to acclimate prior to beginning experimentation, and food and water were made freely available. Tumor cells were inoculated into nude mice by subcutaneous injection of 0.1 mL aliquots of saline containing 2×10^6 SQ20B cells into the right flank using 26-gauge needles.
Mice started drug treatment 1 week after tumor inoculation. For the MyD88 knockdown experiments, female mice were randomized into 2 treatment groups and orally administered either water or 12.5 mg/kg erlotinib (ERL) daily. For the IL-1α neutralization experiments, male and female mice were randomized into 4 treatment groups as follows. Control group: Mice were administered water orally daily and 1 mg/kg IgG i.p once per week. […] Mice were evaluated daily and tumor measurements taken three times per week using Vernier calipers. Tumor volumes were calculated using the formula: tumor volume=(length×width^2)/2 where the length was the longest dimension, and width was the dimension perpendicular to length. […]

Cal-27 HNSCC cells [5] = assay: IL-6 secretion by ELISA in Cal-27 cells; format: cell-based, human; conditions: erlotinib 5 μM, 48 h vs DMSO, ELISA
Source text: as §5, §1, §2
as §5, with “(20)” for “(16)”
as §3, with “The required volume of each drug was added directly to complete cell culture media on cells to achieve the indicated final concentrations.” left out

Cal-27 HNSCC cells [6] = assay: IL-1α release by ELISA in Cal-27 cells; format: cell-based, human; conditions: erlotinib 5 μM, indicated time points, ELISA
Procedure: as §1, §2, §3, §4

[7] = ERL 5 μM 48 h, absolute levels very low

Structure (SMILES) | genes related to inflammation and innate immunity [1] | IL-1α after erlotinib treatment over time (SQ20B HNSCC cells [2]) | IL-1α after erlotinib treatment over time (SQ20B HNSCC cells [2]; listed as ERL) | IL-6 expression/secretion in HNSCC cell lines treated with EGFRIs (HNSCC tumor cell lines) | IL-6 expression/secretion in HNSCC cell lines treated with EGFRIs (HNSCC tumor cell lines; listed as ERL) | TLR8 expression (SQ20B cells; [7]) | TLR mRNA expression (SQ20B cells; erlotinib) | secreted IL-1β after erlotinib treatment [3] | secreted IL-1β after erlotinib treatment ([3]; listed as ERL) | TLR10 expression (Cal-27 cells; [7]) | TLR mRNA expression (Cal-27 cells; erlotinib) | IL-6 production/secretion with erlotinib (SQ20B HNSCC cells [4]) | anti-tumor activity in vivo with IL-1α blockade (SQ20B xenograft tumors; EGFRI combined with IL-1α blockade (neutralizing IL-1α antibody)) | tumor growth of MyD88-deficient xenografts treated with erlotinib (SQ20B xenograft tumors; shMyD88 #2 and #9 vs erlotinib-treated control xenografts, 12.5 mg/kg orally daily, three weeks) | IL-6 production/secretion with erlotinib (Cal-27 HNSCC cells [5]) | IL-1α after erlotinib treatment over time (Cal-27 HNSCC cells [6]) | IL-1α after erlotinib treatment over time (Cal-27 HNSCC cells [6]; listed as ERL)
COc1cc2ncnc(Nc3cccc(Br)c3)c2cc1OC [PD153035] | upregulated | – | – | – | – | – | – | – | – | – | – | – | – | – | – | – | –
C#Cc1cccc(Nc2ncnc3cc(OCCOC)c(OCCOC)cc23)c1 [erlotinib, Erlotinib] | – | steadily increased across all time points | increased across all time points | significant upregulation | induces the secretion of IL-6 | increased | did not affect | undetectable; also recorded: unable to detect | not IL-1β was detectable | increased | did not affect | increases IL-6 production | significantly increased | reduced tumor growth | increases IL-6 production | steadily increased across all time points | increased across all time points
